Here are results for 8 compounds from patent publication US20240251785A1, “SMALL MOLECULE ANTAGONISTS AND AGONISTS OF ARTHROPOD KININ RECEPTORS FOR PEST CONTROL” (The Texas A&M University System, priority 2021, published 2024).

In data set [1] the target is T1, recombinant tick kinin receptor (BMLK3) (Rhipicephalus microplus, UniProt Q9NHA4).
T1 construct: intracellular calcium fluorescence; agonist Rhimi-K-1 (QFSPWGamide)
T1 sequence (Q9NHA4 1-397): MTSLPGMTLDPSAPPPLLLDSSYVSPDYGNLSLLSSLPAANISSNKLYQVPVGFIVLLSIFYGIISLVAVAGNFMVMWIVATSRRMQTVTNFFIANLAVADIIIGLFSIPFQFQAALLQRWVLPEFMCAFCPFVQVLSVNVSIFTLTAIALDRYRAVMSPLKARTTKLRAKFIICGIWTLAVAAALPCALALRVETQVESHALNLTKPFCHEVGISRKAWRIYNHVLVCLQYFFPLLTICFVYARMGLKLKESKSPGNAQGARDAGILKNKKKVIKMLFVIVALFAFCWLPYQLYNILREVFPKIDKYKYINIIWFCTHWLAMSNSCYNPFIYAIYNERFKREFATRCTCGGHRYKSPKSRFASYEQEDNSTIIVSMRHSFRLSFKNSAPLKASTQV
In words: dual-addition intracellular calcium fluorescence assay, antagonist dose-response (inhibition of Rhimi-K-1 response in BMLK3 cells). The class given is cell-based. To be noted: FIG. 6 SAR analysis; BMLK3 CHO-K1 cells stably expressing R. microplus kinin receptor; agonist Rhimi-K-1 (QFSPWGamide) 1 μmol L^−1.

Data set [2] relates to isolated hindguts from females of the mosquito Aedes aegypti. Put plainly: Hindgut contraction inhibition assay. To be noted: for effect on hindgut contraction elicited by 1728, in words: compound 100 μmol L^−1, 5 min, then 1728 10 μmol L^−1, 1 h. As for the experimental part:
A mosquito colony of Ae. aegypti (Diptera: Culicidae), Liverpool strain, was maintained at 26.5° C. in a 16 h:8 h, light:dark photoperiod and provided with 10% sugar water, as described previously.^31 For the experiment, 3-5-day-old females were used, and the assay was modified based on our previous protocol.^33 A group of six female mosquitoes were cold-anesthetized on a Petri dish placed on ice, where both wings were removed. Mosquitoes became active when the plate was removed from the ice. The dissection dish was filled with Ringer's solution (150 mmol L^−1 NaCl, 25 mmol L^−1 HEPES, 3.4 mmol L^−1 KCl, 7.5 mmol L^−1 NaOH, 1.8 mmol L^−1 NaHCO3. 1 mmol L^−1 MgSO4, 1.7 mmol L^−1 CaCl2 and 5 mmol L^−1 glucose, pH 7.1) at room temperature. To dissect the hindgut of each mosquito, their head and thorax were removed with forceps, and the abdomen was submerged in the Ringer solution. The hindgut, ovaries and Malpighian tubules (MTs), and midgut were taken out by pulling the last segment of the abdomen under the Ringer solution. Then, the ovaries and the majority of the midgut were removed using scissors leaving the intact hindgut and MTs. The isolated tissue was transferred with forceps, gripping on the cuticle of the last segment, into a drop of 30 μL Ringer solution in a 12-well-plate (Greiner Bio-One®, 665,102). After six mosquitoes were dissected as a group, paraffin oil (1-2 mL) was added to each well to cover the saline. The cuticle of the last abdominal segment was drawn out of the Ringer solution into the oil for better observation of the hindgut contraction. The tissues were filmed using an Olympus SZ60 camera (Olympus America Inc., Center Valley, PA, USA) mounted on a dissecting microscope.
First, the hindgut basal contraction rate was recorded by filming each tissue for 60 s. […] After 5 min of incubation at room temperature, 15 μL kinin agonist analog 1728 solution (4×in Ringer solution) was added to the Ringer solution to reach a final concentration of 10 μmol L^−1. After 1 h of incubation, the tissue was filmed again for 60 s.
The contractible hindgut of mosquito consists of a funnel-shaped pylorus located immediately after the posterior midgut, followed by a long, coiled ileum, and a bulbous colon which contains the rectal pads, and a tapering rectal tube at the posterior end.^35 To analyze each video, the hindgut contraction number was counted by observing the contraction occurring at the junction between the pyloric sphincter and the most anterior ileum. The hindgut contraction rate was expressed as the number of contractions observed over 60 s. The fold change in contraction rate was calculated as the contraction rate estimated at 1 h post treatment divided by the basal rate estimated before the treatment with the chemicals. Each treatment was repeated with 30 female mosquitoes independently. All statistical analyses were done by PRISM software (v8, GraphPad). The differences in fold-change of the contraction rates among treatments were analyzed using the nonparametric Kruskal-Wallis test, followed by the Dunn's multiple comparison test. […].

The test system of data set [3] is Drosophila melanogaster renal organs. To be noted: cited from earlier work.
The test system of data set [4] is Rhodnius prolixus hindgut. To be noted: cited from earlier work.
Data set [5] relates to Human dermal fibroblasts (HDF) cells. In words: Cytotoxicity assay (resazurin). The class given is cell-based. To be noted: Human dermal fibroblasts cells; tested at 20 μcool L^−1. In general terms: Alamar Blue is a resazurin reagent that responds to reducing activity.
For data set [6], the target named is recombinant tick kinin receptor (BMLK3) (Rhipicephalus microplus, UniProt Q9NHA4). Put plainly: Dose-response dual-addition calcium fluorescence assay on BMLK3 cells. To be noted: for EC50: read-out: BMLK3 EC50; for activity type in dose-response assay, in words: Rhimi-K-1 1 μmol L^−1. Format: cell-based.
Data set [7] deals with vector-only (V/O) CHO-K1 cells. In words: Dose-response dual-addition calcium fluorescence assay on vector-only cells. The class given is cell-based.
For data set [8], the system named is Aedes aegypti kinin receptor. In words: Calcium fluorescence assay on recombinant mosquito kinin receptor (IGKN G12 cell line). The class given is cell-based. To be noted: for calcium response, in words: 100 μmol L^−1. The procedure: Three identified potent small molecule antagonists, and as control, a small molecule of very low antagonistic activity, all identified as part of this study, were tested in the calcium fluorescence assay, as above, for their activity on the cell line expressing the Aedes aegypti kinin receptor (IGKN G12 cell line). Receptor cloning, expression and clonal cell selection were as described previously.^3′ The recombinant tick kinin receptor (BMLK3) was tested simultaneously as positive control for the assay. BMLK3 and IGKN G12 cells were seeded in 96-well-plates (Greiner Bio-One®, B/C 655097) at a density of […] cells in 100 μL maintenance medium. Cells were prepared as described above for the calcium fluorescence assay; and each well was added with 90 μL assay buffer (see Section 2.3, HHBS plus dye efflux inhibitor).
For each compound three 10× concentrations (100, 300, 1000 μmol L^−1) were prepared and 10 μL of each was added manually into one well of each cell line for a final concentration of 10, 30 and 100 […]. After 5 min incubation at room temperature, a kinin receptor agonist peptide, the kinin agonist analog 1728^28 [[Aib]FF[Aib]WGamide, RoyoBiotech, Shanghai, China] was added manually (50 μL; 3× stock in HHBS) into each well for a final concentration of 1 μmol L^−1. The cellular calcium response in RFU was immediately recorded continuously for 60 s with 3 s intervals between reads using a Clariostar plate reader. The average RFU of these 20 reads represented the raw response to each treatment. Three independent replicates were run for each concentration and compound. The percentage of signal reduction with respect to the control that contained solvent and the kinin agonist analog 1728 was calculated using the average RFU registered for the treatment with each small molecule divided by the average RFU recorded for the control (100%). Data analyses were performed with the percentage reduction of the three independent replicates. PRISM (Graphpad, San Diego. CA, USA) was utilized for analysis and graphics.

Data set [9] deals with R. microplus kinin receptor. In words: High-throughput dual-addition calcium fluorescence screen on BMLK3 cells. To be noted: compound 2 μmol L^−1, 5 min, then FFFSWGa 500 nmol L^−1. Format: cell-based, Rhipicephalus microplus.
[10] abbreviates: Table 5 analogs, first addition.
The mark [11] stands for this setting: Table 5 analogs, second addition Rhimi-K-1 1 μmol L^−1, read-out: BMLK3 antagonist IC50.
The mark [12] stands for this setting: summary of 36 validated antagonist hits, BMLK3 cells.
Setting [13] is: summary of 36 validated antagonist hits, BMLK3 cells, read-out: BMLK3 IC50.
Setting [14] is: compound 10 μmol L^−1, 1 h after 1728 (data not shown).
Setting [15] is: Table 5 analogs, V/O cells, read-out: V/O antagonist IC50.
Where [16] appears, read: summary of 36 validated antagonist hits, vector-only cell (V/O).

Like-named read-outs stand apart in the source and are kept apart here. Where no end group is shown, it is not given here.

For “C1C1═CC═C(\C═C2\SC(═O)N(NS(═O)(═O)C3═CC═CC═C3)C2═S)C═C1 [SACC-0064443]”, the IC50 in data set [1] was 0.66 µM.

Consider [Aib]FF[Aib]WGamide [Molecule 1728], for which the “increase of contraction rate, solvent plus 1728 group” value in data set [2] (1728 10 μmol L^−1, solvent control of SACC-0412062 test (FIG. 8B), 1 h) is on record as “two-fold”. Besides, in data set [3] (10^−7 M range), the “increase of fluid secretion from renal organs, in words” value is on record as “not active”. For the same compound, the “concentration active in diuretic assays” value in data set [3] is 25 µM. In addition, the “concentration inducing hindgut contraction” value in data set [4] is given as 10^−16 M.

`O=C1C(=Cc2ccccc2)SC(=S)N1NS(=O)(=O)c1ccccc1` [SACC-0412060]: the “HDF average % growth inhibition” value in data set [5] is 6.873%. Moreover, the “Inhibitory Efficacy at 12 μM” value in [6] (BMLK3 cells) worked out at 91.75%. Further, the EC50 (in general, the concentration at which the effect is half-maximal) came to 9.57 µM in [6] (setting [10]); 9.57 µM in data set [6] (setting [12]); 9.27 µM in data set [7] (Table 5 analogs, V/O cells); 9.27 µM in [7] (setting [16]). In addition, the IC50 in data set [6] (setting [11]) stood at 1.89 µM; in [6] (setting [13]), 1.89 µM; in data set [7] (setting [15]), 0.538 µM; in data set [7] (setting [16]) it was 0.538 µM. Further, in data set [2] (setting [14]), the “hindgut contraction rate, in words” value is “no increase in the hindgut contraction rate was observed”. The “effect on hindgut contraction elicited by 1728, in words” value (“effect on hindgut contraction elicited” below) is on record as “inhibited the increased rate of muscle contraction” in data set [2] and “significantly reduced the mobility of the hindgut” in data set [2] (listed as SACC-0412000).

As for `CCOc1cc(C=C2SC(=S)N(NS(=O)(=O)c3ccc(C)cc3)C2=O)ccc1O` [SACC-0412066], the “HDF average % growth inhibition” value in [5] turned out to be 2.02%. Further, the “Inhibitory Efficacy at 12 μM” value in data set [6] (BMLK3 cells) stood at 79.17%. The “hindgut contraction rate, in words” value in data set [2] (setting [14]) was “no increase in the hindgut contraction rate was observed”. The “effect on hindgut contraction elicited” value in data set [2] is “inhibited the increased rate of muscle contraction”; in data set [2] (listed as -10412066), “significantly reduced the mobility of the hindgut”; in [2] (listed as SACC-0412006) it was “did not observe any increase in the hindgut contraction rate”. Also, the half-maximal effective concentration (EC50) in data set [7] (Table 5 analogs, V/O cells) is above 25 µM; in [7] (setting [16]), above 25 µM. In addition, the IC50 in data set [7] (setting [15]) and in data set [7] (setting [16]) was 1.04 µM each time. In data set [8] (30 μmol L^−1, 1728 1 μmol L^−1), the “inhibition of response compared to control” value is reported as 84%. Further, the “calcium response, in words” value in data set [8] is “elicited a strong calcium response”.

Regarding “NPFHAWG-NH2 [aedeskinin 2, reference compound]”, the “hindgut contraction rate, in words” value in data set [2] (1 μmol L^−1, 1 h (data not shown)) is on record as “increase of hindgut contraction rate”.

For `Cc1ccc(S(=O)(=O)NN2C(=O)C(=Cc3cccc4ccccc34)SC2=S)cc1` [SACC-0412062], in data set [5], the “HDF average % growth inhibition” value came to 8.117%. For the same compound, the “Inhibitory Efficacy at 12 μM” value in data set [6] (BMLK3 cells) was determined as 50.31%. In addition, the “effect on hindgut contraction elicited” value in data set [2] is given as “inhibited the increased rate of muscle contraction”. Also, the EC50 in data set [7] (Table 5 analogs, V/O cells) was determined as 6.26 µM; in data set [7] (setting [16]) it was 6.26 µM. Moreover, the IC50 in data set [7] (setting [15]) and in [7] (setting [16]) was 7.36 µM throughout.

In the case of `Cc1ccc(S(=O)(=O)NN2C(=O)C(=Cc3ccc(C(=O)O)cc3)SC2=S)cc1` [SACC-0412064], the “HDF average % growth inhibition” value in [5] is recorded as −7.067%. For the same compound, the “Inhibitory Efficacy at 12 μM” value in data set [6] (BMLK3 cells) was found to be 0.31%. Besides, the “activity type in dose-response assay, in words” value in data set [6] (BMLK3 cells) was “very weak partial antagonists”. In addition, the EC50 in data set [6] (setting [10]) was found to be 13 µM; in data set [6] (setting [12]), 13 µM; in data set [7] (Table 5 analogs, V/O cells), 17.4 µM; in data set [7] (setting [16]), 17.4 µM. Besides, the IC50 in data set [6] (setting [11]) is 0.118 µM; in data set [6] (setting [13]) it was 0.118 µM; in [7] (setting [15]) it was 1.47 µM; in [7] (setting [16]) it was 1.47 µM. Also, the “effect on hindgut contraction elicited” value in [2] is “did not differ”. Moreover, the “calcium response, in words” value in [8] is listed as “did not antagonize the calcium response”.

On to `CCCC[n+]1c(/C=C2/C=CN(CC)c3ccc(C)cc32)ccc2ccccc21` [SACC-0048555], for which, in data set [5], the “HDF average % growth inhibition” value was −9.767%. In addition, the “Inhibitory Efficacy at 12 μM” value in [6] (BMLK3 cells) was found to be 107.39%. In data set [6] (BMLK3 cells), the “activity type in dose-response assay, in words” value is recorded as “full agonist”. Besides, the EC50 in data set [6] (first addition, 20 concentrations 28 nM-25 μM) came to 8.88 µM; in data set [6] (setting [12]), 8.88 µM; in data set [7] (V/O cells, first addition) it was 12.8 µM; in [7] (setting [16]), 12.8 µM. Besides, the IC50 in data set [6] (second addition Rhimi-K-1 1 μmol L^−1, read-out: BMLK3 IC50) was determined as 1.51 µM; in data set [6] (setting [13]), 1.51 µM; in [7] (V/O cells, second addition Rhimi-K-1 1 μmol L^−1, read-out: V/O antagonist IC50) it was 3.59 µM; in data set [7] (setting [16]), 3.59 µM. In addition, in [9], the “antagonist Io (%)” value is recorded as 54%.
